GI50 and TGI data for 13 compounds are collected here from PubChem BioAssay (NCI).

Test systems include ACHN renal; CAKI-1 renal; K-562 leukemia; MDA-MB-231 breast; PC-3 prostate; SK-MEL-28 melanoma; SK-MEL-5 melanoma; T-47D breast; U251 CNS; UACC-257 melanoma.
Common to all, as to experiment: inhibition of tumour cell growth, NCI panel, 48 h

“And” between values parts separate entries of the source, which are not always exact repeats. Equal values may be shown once.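 Exposure lasted 48 hours, with cells grown in 96-well plates and compounds tested at five concentrations. GI50 is the concentration that inhibits growth by half. TGI denotes the concentration required for complete inhibition of growth.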 Bounds are passed on as bounds.

For `COc1cccc(CNc2ncnc3c2ncn3C2OC(CO)C(O)C2O)c1O` (stereo not given), the GI50 with ACHN renal is 0.128 µM; in the assay on CAKI-1 renal it was 0.0667 µM; in the assay on K-562 leukemia, 0.311 µM; in the assay with MDA-MB-231 breast it was 0.0302 µM; in the assay with PC-3 prostate, 0.179 µM; in the assay with SK-MEL-28 melanoma, 1.55 µM. Moreover, the GI50 in the assay on SK-MEL-5 melanoma was 1.43 µM; in the assay on T-47D breast, 0.0549 µM; with U251 CNS it was 0.522 µM; with UACC-257 melanoma, 1.91 µM. Further, the TGI in the assay with K-562 leukemia is over 100 µM; with MDA-MB-231 breast, 0.111 µM; in the assay on PC-3 prostate it was over 100 µM; with SK-MEL-28 melanoma, over 100 µM; with SK-MEL-5 melanoma, over 100 µM; with U251 CNS, over 100 µM. The compound also showed a TGI in the assay with UACC-257 melanoma of over 100 µM.

Consider `FC(F)(F)c1ccc(-c2nn3ncccc3c2-c2ccnc(Nc3ccc4c(c3)OCCO4)n2)cc1`, for which the GI50 is 14.7 µM with ACHN renal; 4.86 µM with CAKI-1 renal; 8.79 µM in the assay with K-562 leukemia; 3.49 µM with MDA-MB-231 breast; 7.32 µM with PC-3 prostate; over 25 µM in the assay on SK-MEL-28 melanoma. Also, the GI50 was 6.42 µM with SK-MEL-5 melanoma, 4.78 µM in the assay on T-47D breast, 14.1 µM with U251 CNS and 7.23 µM in the assay with UACC-257 melanoma. In addition, the TGI with ACHN renal was over 25 µM; with CAKI-1 renal it was over 19.2 µM; with K-562 leukemia it was over 25 µM; with MDA-MB-231 breast, over 21.9 µM; with PC-3 prostate, over 25 µM; with SK-MEL-28 melanoma, over 25 µM. Besides, the TGI with SK-MEL-5 melanoma, in the assay with T-47D breast, with U251 CNS and in the assay with UACC-257 melanoma was over 25 µM each time.

In the case of `CSc1ncnc2c1ncn2CC(=O)C1CCC2C3CCC4=CC(=O)CCC4(C)C3CCC12C` (stereo not given), the TGI is 23.8 µM in the assay on ACHN renal; over 70.2 µM in the assay with CAKI-1 renal; over 71.8 µM in the assay with K-562 leukemia; 27.7 µM in the assay on MDA-MB-231 breast; 9.71 µM in the assay with PC-3 prostate; 28.2 µM in the assay on SK-MEL-28 melanoma. Also, the TGI was 5.15 µM in the assay with SK-MEL-5 melanoma, 5.63 µM with T-47D breast, 42.4 µM in the assay on U251 CNS and 6.09 µM in the assay with UACC-257 melanoma.

With `C=CC(C)(C)n1cc(C2=C(O)C(=O)C(c3cn(C(C)(C)C=C)c4ccccc34)=C(O)C2=O)c2ccccc21`, the TGI was 12.9 µM in the assay on ACHN renal; 6.56 µM with CAKI-1 renal; over 100 µM in the assay with K-562 leukemia; 8.27 µM with MDA-MB-231 breast; 7.13 µM in the assay with PC-3 prostate; 35 µM in the assay with SK-MEL-28 melanoma. The TGI in the assay with SK-MEL-5 melanoma is 4.88 µM; in the assay with T-47D breast, 23.1 µM; in the assay with U251 CNS, 10.4 µM; in the assay on UACC-257 melanoma it was 9.73 µM.

On to `CCCCCCNCCCNc1c2cc(OC)ccc2nc2cccc([N+](=O)[O-])c12`, for which the GI50 is 0.159 µM in the assay on ACHN renal; 0.24 µM with CAKI-1 renal; 0.121 µM with K-562 leukemia; 0.247 µM with MDA-MB-231 breast; 0.305 µM with SK-MEL-28 melanoma; 0.135 µM with SK-MEL-5 melanoma. Also, the GI50 in the assay on T-47D breast is 0.35 µM; with U251 CNS it was 0.0407 µM; in the assay with UACC-257 melanoma, 0.395 µM. In addition, the TGI in the assay on ACHN renal was 1.54 µM and 0.535 µM; with CAKI-1 renal, 0.797 µM and 0.748 µM; with K-562 leukemia, 0.489 µM and 0.352 µM; with MDA-MB-231 breast, 0.481 µM and 1.02 µM; with PC-3 prostate, 0.56 µM and 1.02 µM; in the assay with SK-MEL-28 melanoma, 0.474 µM and 2 µM. Besides, the TGI was 2.01 µM and 0.279 µM in the assay with SK-MEL-5 melanoma; 0.931 µM and 2.49 µM with T-47D breast; 1.4 µM and 1.47 µM in the assay with UACC-257 melanoma.

On to `Cc1cc(CCl)c(C)cc1CCl`, for which the GI50 was 0.695 µM in the assay with ACHN renal; 0.358 µM in the assay with CAKI-1 renal; 1.06 µM with K-562 leukemia; 4.08 µM in the assay on MDA-MB-231 breast; 2.25 µM in the assay on PC-3 prostate; 2.49 µM with SK-MEL-28 melanoma. For the same compound, the GI50 in the assay with SK-MEL-5 melanoma was 4.19 µM; in the assay with T-47D breast, 0.733 µM; with U251 CNS, 1.47 µM; in the assay on UACC-257 melanoma, 2.15 µM. The TGI was 3.08 µM with ACHN renal; 1.59 µM with CAKI-1 renal; over 33.2 µM in the assay with K-562 leukemia; 18.6 µM in the assay with MDA-MB-231 breast; 10.1 µM with PC-3 prostate; 6.66 µM with SK-MEL-28 melanoma. Besides, the TGI in the assay with SK-MEL-5 melanoma is 17.2 µM; in the assay with T-47D breast, 2.31 µM; with U251 CNS, 4.27 µM; with UACC-257 melanoma it was 5.29 µM.

On to `CC(Oc1ccc(Oc2cnc3ccc(Cl)cc3n2)cc1)C(=O)O` (stereo not given), for which the TGI in the assay with ACHN renal, in the assay with CAKI-1 renal, in the assay on K-562 leukemia, with MDA-MB-231 breast, in the assay on PC-3 prostate and with SK-MEL-28 melanoma was over 100 µM throughout. Further, the TGI with SK-MEL-5 melanoma, with T-47D breast, with U251 CNS and in the assay with UACC-257 melanoma was over 100 µM in each case.

For the compound `O=C1/C(=C\c2ccco2)Oc2ccccc21`, the TGI in the assay on ACHN renal, in the assay on CAKI-1 renal, with K-562 leukemia, in the assay with MDA-MB-231 breast, with PC-3 prostate and in the assay on SK-MEL-28 melanoma was over 100 µM each time. Also, the TGI with SK-MEL-5 melanoma, in the assay with T-47D breast, with U251 CNS and in the assay on UACC-257 melanoma was over 100 µM each time.

Regarding `O=C(CC1(O)C(=O)Nc2ccc(F)cc21)c1ccc(C(=O)NCC2CCC3(CC2)OOC2(CCCCC2)OO3)cc1` (stereo not given), the GI50 with ACHN renal is 2.89 µM; with CAKI-1 renal, 14 µM; in the assay with K-562 leukemia it was 3.49 µM; with MDA-MB-231 breast, 9.92 µM; with PC-3 prostate it was 3.86 µM; in the assay with SK-MEL-28 melanoma, 13.9 µM. In addition, the GI50 is 3.69 µM in the assay on SK-MEL-5 melanoma, 5 µM in the assay with T-47D breast, 3.18 µM with U251 CNS and 12.7 µM in the assay with UACC-257 melanoma. For the same compound, the TGI is 10.7 µM in the assay on ACHN renal; 27.7 µM in the assay with CAKI-1 renal; 21.9 µM with K-562 leukemia; 29.9 µM in the assay on MDA-MB-231 breast; 19.3 µM with PC-3 prostate; 32.4 µM in the assay with SK-MEL-28 melanoma. In addition, the TGI with SK-MEL-5 melanoma was found to be 14.4 µM; with T-47D breast, 44.2 µM; with U251 CNS it was 11.3 µM; in the assay with UACC-257 melanoma it was 29.9 µM.

For `CCCCCCCCCc1ccc(OCCOCCOCCOCCOCCOCCOCCOCCOCCO)cc1`, the GI50 was 1.19 µM in the assay with ACHN renal; 0.478 µM with CAKI-1 renal; 0.332 µM in the assay on K-562 leukemia; 0.668 µM with MDA-MB-231 breast; 0.0898 µM in the assay with PC-3 prostate; 0.895 µM in the assay with SK-MEL-28 melanoma. The GI50 with SK-MEL-5 melanoma was 0.136 µM; in the assay with T-47D breast it was 0.224 µM; in the assay with U251 CNS, 0.458 µM; with UACC-257 melanoma, 0.0567 µM. Further, the TGI in the assay with ACHN renal came to 5.7 µM; in the assay with CAKI-1 renal, 5.75 µM; in the assay on K-562 leukemia, 7.27 µM; with MDA-MB-231 breast it was 1.51 µM; in the assay with PC-3 prostate it was 1.18 µM; in the assay with SK-MEL-28 melanoma, 2.02 µM. Moreover, the TGI in the assay on SK-MEL-5 melanoma is 0.643 µM; in the assay with T-47D breast, 2.75 µM; with U251 CNS, 1.25 µM; in the assay with UACC-257 melanoma, 0.812 µM.

With `COc1ccc(C(=O)c2sc3nc(-c4ccccc4OC)ccc3c2N)cc1OC`, the GI50 was 7.24 µM with ACHN renal; 27.6 µM in the assay on CAKI-1 renal; 5.1 µM in the assay on K-562 leukemia; 3.44 µM in the assay on MDA-MB-231 breast; 2.84 µM in the assay with PC-3 prostate; over 100 µM in the assay on SK-MEL-28 melanoma. The GI50 in the assay on SK-MEL-5 melanoma was 2.05 µM; in the assay with T-47D breast, 2.95 µM; in the assay on U251 CNS, 14.2 µM; in the assay with UACC-257 melanoma it was 6.05 µM. The TGI in the assay on ACHN renal was over 100 µM; with CAKI-1 renal, over 100 µM; in the assay with K-562 leukemia, over 100 µM; in the assay with MDA-MB-231 breast, 42.3 µM; in the assay with PC-3 prostate, 35.1 µM; with SK-MEL-28 melanoma, over 100 µM. Also, the TGI with SK-MEL-5 melanoma is 5.68 µM; in the assay with T-47D breast, over 100 µM; in the assay on U251 CNS it was over 100 µM; in the assay on UACC-257 melanoma, over 100 µM.

For the compound `ClCc1cccc(Cn2cnc3c(Cl)nc(Cl)nc32)c1`, the GI50 in the assay with ACHN renal is 1.91 µM; with CAKI-1 renal it was 2.22 µM; with K-562 leukemia, 1.6 µM; with MDA-MB-231 breast, 1.95 µM; in the assay with PC-3 prostate, 2.38 µM; with SK-MEL-28 melanoma, 2.34 µM. Moreover, the GI50 with SK-MEL-5 melanoma was 1.59 µM; with T-47D breast, 1.97 µM; with U251 CNS it was 1.7 µM; in the assay on UACC-257 melanoma, 1.86 µM. Also, the TGI in the assay on ACHN renal is 3.72 µM; in the assay on CAKI-1 renal, 5.85 µM; in the assay on K-562 leukemia, over 100 µM; in the assay on MDA-MB-231 breast, 3.76 µM; in the assay on PC-3 prostate it was 5.02 µM; in the assay on SK-MEL-28 melanoma, 5.38 µM. In addition, the TGI in the assay on SK-MEL-5 melanoma was 3.05 µM; with T-47D breast, 4.5 µM; in the assay on U251 CNS, 3.09 µM; with UACC-257 melanoma, 3.45 µM.

On to `CC(=O)NC1(NC(C)=O)C2CC(C1Cc1ccccc1)C(C)(C)C2C` (stereo not given), for which the TGI in the assay with ACHN renal, with CAKI-1 renal, in the assay on K-562 leukemia, in the assay on MDA-MB-231 breast, in the assay on PC-3 prostate and in the assay on SK-MEL-28 melanoma was over 100 µM each time. Moreover, the TGI with SK-MEL-5 melanoma, in the assay with T-47D breast, with U251 CNS and in the assay with UACC-257 melanoma was over 100 µM throughout.
